Laboratory results: PubChem BioAssay (NCI)
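Growth conditions: 96-well plates. Treatment: test compound, 48 hours, 5 concentrations. Analysis: linear interpolation between bracketing concentrations; unreached endpoints set to highest concentration. At the GI50, growth is halved. TGI: concentration producing complete growth inhibition.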

Assays:
Assay in all cases: inhibition of tumour cell growth, NCI panel, 48 h
[1] = tested on: SNB-78 CNS
[2] = tested on: M19-MEL melanoma
[3] = tested on: HOP-18 NSCLC
[4] = tested on: KM20L2 colon
[5] = tested on: XF 498 CNS
[6] = tested on: MDA-N
[7] = tested on: RXF-631 renal

Structure (SMILES) | TGI [1] [µM] | TGI [2] [µM] | TGI [3] [µM] | TGI [4] [µM] | TGI [5] [µM] | TGI [6] [µM] | TGI [7] [µM] | GI50 [6] [µM]
COc1cc(Nc2cnc3ccc(C(F)(F)F)cc3n2)cc(OC)c1OC | > 100 | > 100 | > 100 | 22.5 | – | – | – | –
CC1=N/C(=C\c2ccc(/C=C3/N=C(C)OC3=O)cc2)C(=O)O1 | > 100 | > 100 | > 100 | > 100 | > 100 | – | – | –
COCC([C@@H](O)C(O)C(=O)NCC[C@@H](C)c1nc(/C=C/CC2OC3(C[C@H](O)C2C)OC(C(C[C@H](O)C(C)[C@H](O)C(C)/C=C(C)/C(C)=C/C=C/C(C)=C/C#N)OC)[C@@H](OP(=O)(O)O)C3(C)C)co1)N(C)C (stereo partly specified) | – | – | – | – | – | 0.000358 | – | –
O=C(NC1C(=O)NNC1c1cccc([N+](=O)[O-])c1)c1ccccc1 (stereo unspecified) | > 100 | > 100 | > 100 | > 100 | > 100 | – | > 100 | –
N#CNC(N)=NCc1ccccc1 | – | > 100 | – | > 100 | – | – | – | –
COc1cc2oc(-c3ccc(O)cc3)cc(=O)c2c(O)c1C1OC(CO)C(O)C(O)C1O (stereo unspecified) | > 100 | > 100 | > 100 | > 100 | > 100 | – | – | –
Cc1ccc(S(=O)(=O)OCC/C(=C\[Si](C)(C)C)c2ccccc2)cc1 | – | > 100 | > 100 | > 100 | > 100 | – | – | –
O=C(NC12CC3CCC1CC(C3)C2)[C@@H]1CCCN1C(=O)OCc1ccccc1 (stereo partly specified) | > 100 | > 100 | > 100 | > 100 | > 100 | – | – | –
OCc1cc2c(cn1)[nH]c1ccc(NCc3ccccc3)cc12 | – | 60.3 | – | 55.6 | 59.2 | – | > 100 | –
CCCCCCCC(=O)OCC(COC(=O)C(C)(C)C)OC(=O)Cc1ccccc1 (stereo unspecified) | – | > 100 | > 100 | > 100 | – | – | – | –
O=C1NC(=O)c2c1n(Cc1ccccc1)c(=O)n2Cc1ccccc1 | > 100 | > 100 | > 100 | > 100 | – | – | – | –
Cc1ccc2c(c1)CN1c3ccc(C)cc3CN2C1c1ccccc1O | > 100 | > 100 | – | – | – | – | – | –
C[C@]12CCC3[C@@H](CCC45OC4C(=O)CC[C@]35C)C1Cc1cnn(-c3ccc(F)cc3)c1N2 (stereo partly specified) | 79 | > 100 | > 100 | 62.6 | > 100 | – | – | –
COC(=O)CCC(NC(=S)N/N=C/c1cccs1)C(=O)OC (stereo unspecified) | > 100 | > 100 | > 100 | > 100 | > 100 | – | > 100 | –
O=c1cc(O)cc2n1CCC2 | > 100 | – | – | > 100 | > 100 | – | > 100 | –
Cc1cc([N+](=O)[O-])c(C)c2c1[nH]c1ccc(Cl)cc12 | > 100 | > 100 | > 100 | – | > 100 | – | – | –
COc1cc(CNc2nc3cc(N)cc(N)c3nc2-c2ccccc2)cc(OC)c1 | – | – | – | – | – | 5.21 | – | 2.33
CC1=C(C(=O)Nc2ccccc2)C(c2ccc(N(C)C)cc2)C(C(=O)Nc2ccccc2)=C(C)N1 | > 100 | > 28.9 | > 100 | 7.26 | > 100 | > 100 | – | –

Structure (SMILES) | TGI [1] [µM] | TGI [2] [µM] | TGI [3] [µM] | TGI [4] [µM] | TGI [5] [µM] | TGI [6] [µM] | TGI [7] [µM] | GI50 [6] [µM]
N#C/C(=C\c1cc(OCc2ccccc2)c(OCc2ccccc2)cn1)C(N)=O | > 100 | > 100 | – | > 100 | > 100 | – | > 100 | –
CCCCCCN(CCCCCC)C(=S)N/N=C(\C)c1ccccn1 | 2.34 | – | – | 2.34 | – | 5.56 | 3.67 | –
Cc1nc2ccccc2nc1CC(=O)C(=O)Nc1ccc(Cl)cc1Cl | > 100 | > 100 | – | > 100 | – | – | > 100 | –
Cc1nc(N)nc(CCC(=O)Nc2cccc(C(F)(F)F)c2)c1-c1ccc(Cl)cc1 | > 100 | > 100 | > 100 | > 100 | > 100 | – | > 100 | –
COc1cc(C)c(CC/C(C)=C/Cc2cc(O)ccc2O)c(C)c1C | – | > 25 | > 25 | > 25 | > 25 | – | – | –
CCOC(=O)c1nc(C)oc1C(F)(F)F | > 100 | > 100 | – | > 100 | > 100 | – | – | –
O=C1[C@@H]2C(c3c(Cl)cccc3Cl)=NO[C@@H]2C(=O)N1c1ccc(Cc2ccc(N3C(=O)[C@H]4C(c5c(Cl)cccc5Cl)=NO[C@H]4C3=O)cc2)cc1 | > 100 | > 100 | > 100 | > 100 | > 100 | – | – | –
COc1ccc(CNc2cnc3ccc(N)cc3n2)cc1 | > 100 | > 100 | > 100 | – | > 100 | – | – | –
CCc1cccc(C)c1NC(=O)CCc1nc(=S)[nH][nH]1 | > 100 | > 100 | > 100 | > 100 | > 100 | – | – | –
COc1cc([C@@H]2c3cc4c(cc3[C@@H](NC(=O)c3ccc(C#N)cc3)C3COC(=O)[C@@H]32)OCO4)cc(OC)c1O (stereo partly specified) | 58.2 | 15.6 | > 100 | 4.51 | – | – | – | –
CC(Br)C(=O)NC(CO)C(=O)O (stereo unspecified) | – | – | – | – | – | > 100 | – | –
COC1N(C2CC(O)C(CO)O2)C(=O)NC(=O)C1(F)Br (stereo unspecified) | > 50 | – | > 50 | 50 | 50 | > 100 | 50 | –
COC(=O)C1C(=O)O[C@@H](c2ccc3c(c2)OCO3)C1C(=O)OC (mixture of isomers) | > 100 | > 100 | – | > 100 | – | – | > 100 | –
O=[N+]([O-])c1cccc(C2=NN(c3ccccc3)C3c4cc(Br)ccc4OCC23)c1 (stereo unspecified) | > 100 | > 100 | > 100 | > 100 | > 100 | – | – | –
CCOC(=O)C1C(c2ccc(Cl)cc2Cl)NC(c2ccc(C)cc2)C(C(=O)OC)S1(=O)=O (stereo unspecified) | > 100 | > 100 | – | – | > 100 | – | – | –
COC(=O)/C=C(/C(=O)OC)C1(C)c2cc(C(=O)OC)c(C(=O)OC)c(N)c2C(=N)N1c1ccccc1 (stereo unspecified) | – | 41.9 | 62 | 34.8 | 28.4 | – | 86.9 | –
C[C@]12Cc3cn[nH]c3C(=O)C1CC[C@@H]1C2CC[C@@]2(C)C1CC[C@@H]2O (stereo partly specified) | > 100 | – | > 100 | > 100 | > 100 | – | – | –
O=[N+]([O-])c1ccc(Cl)c2c([N+](=O)[O-])cccc12 | – | – | – | – | – | 4.29 | – | –
